In ChEMBL document CHEMBL1131700, “Synthesis and biological evaluation of novel cryptophycin analogs with modification in the beta-alanine region” (Bioorg Med Chem Lett, 1999) one finds T/C and IC50 data, which are given here for 15 molecules.

The T/C is the ratio of treated to control. The term IC50 denotes the concentration needed to halve the response being measured. Read a high IC50 as a need for much substance.

Each structure is given as a SMILES string.

The species named for the first experiment is Mus musculus. Put plainly: Compound was tested for its antitumor activity in murine pancreatic adenocarcinoma PO3 model at the maximum tolerated dose(MTD). Type of experiment: functional.
Conditions: not given
`COc1ccc(C[C@H]2NC(=O)/C=C/C[C@@H]([C@H](C)[C@H]3O[C@@H]3c3ccccc3)OC(=O)[C@H](CC(C)C)OC(=O)[C@H](C)CNC2=O)cc1Cl` [CRYPTOPHYCIN A] showed a T/C of under 5%.
Still for that read-out and setting: the value for `COc1ccc(C[C@H]2NC(=O)/C=C/C[C@@H]([C@H](C)[C@H]3O[C@@H]3c3ccccc3)OC(=O)[C@H](CC(C)C)OC(=O)C(C)(C)CNC2=O)cc1Cl` [CRYPTOPHYCIN 52] was under 5%.

For another experiment, the species on record is Homo sapiens. The experiment is described as follows: Antiproliferative activity was evaluated by the 72 hr MTT cell viability assay using human colon carcinoma cells (GC3). Format: functional. Conditions: Homo sapiens, MTT, 72 h. (Tetrazolium dyes change colour on reduction, which living cells bring about.)
`COc1ccc(C[C@H]2NC(=O)/C=C/C[C@@H]([C@H](C)[C@H]3O[C@@H]3c3ccccc3)OC(=O)[C@H](CC(C)C)OC(=O)C[C@@H](CC(C)C)NC2=O)cc1Cl` showed an IC50 of 3 nM.
Consider `COc1ccc(C[C@H]2NC(=O)/C=C/C[C@@H]([C@H](C)[C@H]3O[C@@H]3c3ccccc3)OC(=O)[C@H](CC(C)C)OC(=O)C[C@@H](Cc3ccccc3)NC2=O)cc1Cl`, for which the IC50 came to 5.2 nM. Compared with the last molecule, the IC50 is about 1.7-fold higher.
With `COc1ccc(C[C@H]2NC(=O)/C=C/C[C@@H]([C@H](C)[C@H]3O[C@@H]3c3ccccc3)OC(=O)[C@H](CC(C)C)NC(=O)C[C@@H](C)NC2=O)cc1Cl`, the IC50 was determined as 0.06 nM.
Still for that read-out and setting: the value for `COc1ccc(C[C@H]2NC(=O)/C=C/C[C@@H]([C@H](C)[C@H]3O[C@@H]3c3ccccc3)OC(=O)[C@H](CC(C)C)OC(=O)[C@H](C)CNC2=O)cc1Cl` [CRYPTOPHYCIN A] was 0.24 nM.
Take `COc1ccc(C[C@H]2NC(=O)/C=C/C[C@@H]([C@H](C)[C@H]3O[C@@H]3c3ccccc3)OC(=O)[C@H](CC(C)C)OC(=O)[C@@H]3CCCCC3NC2=O)cc1Cl` (some centres not stated): the IC50 was found to be 1.3 nM. Compared with the last molecule, the IC50 is about 5.4-fold higher.
Same read-out and setting: the figure for `COc1ccc(C[C@H]2NC(=O)/C=C/C[C@@H]([C@H](C)[C@H]3O[C@@H]3c3ccccc3)OC(=O)[C@H](CC(C)C)OC(=O)[C@H](Cc3ccccc3)NC2=O)cc1Cl` is 1000 nM; for `COc1ccc(C[C@H]2NC(=O)/C=C/C[C@@H]([C@H](C)[C@H]3O[C@@H]3c3ccccc3)OC(=O)[C@H](CC(C)C)OC(=O)[C@H](CC(C)C)NC2=O)cc1Cl` it is 320 nM; for `COc1ccc(C[C@H]2NC(=O)/C=C/C[C@@H]([C@H](C)[C@H]3O[C@@H]3c3ccccc3)OC(=O)[C@H](CC(C)C)OC(=O)c3ccccc3NC2=O)cc1Cl` it is 870 nM.
On the same count and under the same terms, the value for `COc1ccc(C[C@H]2NC(=O)/C=C/C[C@@H]([C@H](C)[C@H]3O[C@@H]3c3ccccc3)OC(=O)[C@H](CC(C)C)OC(=O)C[C@@H](c3ccccc3)NC2=O)cc1Cl` was 0.94 nM.
The same measure, in the same setting: the value for `COc1ccc(C[C@H]2NC(=O)/C=C/C[C@@H]([C@H](C)[C@H]3O[C@@H]3c3ccccc3)OC(=O)[C@H](CC(C)C)OC(=O)[C@H](C(C)C)NC2=O)cc1Cl` was 306 nM; that for `COc1ccc(C[C@H]2NC(=O)/C=C/C[C@@H]([C@H](C)[C@H]3O[C@@H]3c3ccccc3)OC(=O)[C@H](CC(C)C)OC(=O)C(C)(C)CNC2=O)cc1Cl` [CRYPTOPHYCIN 52] was 0.2 nM; that for `COc1ccc(C[C@H]2NC(=O)/C=C/C[C@@H]([C@H](C)[C@H]3O[C@@H]3c3ccccc3)OC(=O)[C@H](CC(C)C)OC(=O)[C@@H]3CCCN3C2=O)cc1Cl` was over 1500 nM.
With `COc1ccc(C[C@H]2NC(=O)/C=C/C[C@@H]([C@H](C)[C@H]3O[C@@H]3c3ccccc3)OC(=O)[C@H](CC(C)C)OC(=O)[C@H](C)NC2=O)cc1Cl`, the IC50 amounted to 13 nM.

The same experiment, now with this note: mtt.
`COc1ccc(C[C@H]2NC(=O)/C=C/C[C@@H]([C@H](C)[C@H]3O[C@@H]3c3ccccc3)OC(=O)[C@H](CC(C)C)OC(=O)C[C@@H](C)NC2=O)cc1Cl` (stereo in doubt; 12b) came in with an IC50 of 0.03 nM.
Consider `COc1ccc(C[C@H]2NC(=O)/C=C/C[C@@H]([C@H](C)[C@H]3O[C@@H]3c3ccccc3)OC(=O)[C@H](CC(C)C)OC(=O)C[C@@H](C)NC2=O)cc1Cl` (stereo in doubt; 12a), for which half-maximal inhibition (IC50) was put at 0.4 nM.
